{
  "source": "patent US20260365695A1",
  "about": "“NOVEL PEPTIDE EXHIBITING SKIN CONDITION IMPROVEMENT ACTIVITY AND COSMETIC COMPOSITION CONTAINING SAME” (DAEBONG LS CO., LTD., priority 2023, published 2026)",
  "key": {"[1]": {"tested_on": "procollagen type I peptide production", "assay": "Procollagen Type I Peptide (PIP) production in NHDF cells (EIA)", "assay_type": "cell-based, Human", "method": "Normal Human Dermal Fibroblasts (NHDF) were obtained from Lonza (Lonza Walkersville, Inc.) and cultured in FBM (Fibroblast Basal Medium) supplemented with 0.1% hFGF-B, insulin, GA-1000, and 2% FBS at 37 °C in a 5% CO2 incubator. Subculture was performed every 2 to 3 days.\nNHDF cells were seeded at 2.0×10^4 cells/well in a 24-well plate and incubated for 24 hours at 37 °C in a 5% CO2 incubator. After incubation, the culture medium was replaced with serum-free FBM, and the peptide prepared in the above Example was applied at concentrations of 1-100 μM, followed by incubation for 24 hours. The supernatant from each experimental group was collected, and the amount of procollagen released into the medium was measured. The positive control group was treated with ascorbic acid at a concentration of 0.001 v/v %. Measurement of procollagen levels was performed using a Procollagen Type I Peptide (PIP) EIA Kit (Takara Biomedical Co.) according to the manufacturer's protocol. The quantitative results of procollagen type I peptide production following treatment with the peptide of the Example are shown in Table 3 and FIG. 4."}, "[2]": {"assay": "Cytotoxicity Evaluation in Macrophages (EZ-Cytox Assay)", "assay_type": "cell-based", "settings": "mouse, positive control, LPS 1 μg/ml, RAW264.7 cells, control = 100, read-out: Cell viability (%)", "method": "(§1) RAW264.7 macrophage cells were obtained from the American Type Culture Collection (ATCC) and cultured in Dulbecco's Modified Eagle's Medium (DMEM) containing 100 units/mL penicillin-streptomycin and 10% (v/v) fetal bovine serum (FBS) at 37 °C in a 5% CO2 incubator, and subculture was performed every 2 to 3 days.\nThe EZ-cytox assay is a representative method for measuring cell viability using the principle that water-soluble tetrazolium salts (WSTs) react with dehydrogenases of viable cells to produce a water-soluble orange formazan.\nTo evaluate cytotoxicity, RAW264.7 cells were seeded at 1.5×10^4 cells/well in a 96-well plate using DMEM supplemented with 10% FBS and incubated for 18 hours at 37 °C in a 5% CO2 incubator. The test samples were then applied to the cultured cells. After treatment, EZ-cytox was added to each well and incubated for 30 minutes under the same conditions. Absorbance was measured at 450 nm using a microplate reader. The mean absorbance values of each sample group were compared with the control group to determine cell viability."}, "[3]": {"tested_on": "nitric oxide (NO) production", "assay": "Inhibition of Nitric Oxide (NO) Production (griess reagent) in LPS-stimulated RAW264.7 cells", "assay_type": "cell-based", "settings": "24 hours; for NO Production (%): LPS 1 μg/ml, relative to LPS control = 100", "method": "as §1\nRAW264.7 cells were seeded at 1.5×10^5 cells/well in a 24-well plate and incubated for 18 hours at 37 °C in a 5% CO2 incubator. The cells were then treated with the peptide prepared in the above Example at concentrations of 50-200 μM and incubated for 24 hours.\nFrom each experimental group, 100 μL of the supernatant was collected into a 96-well plate, and 100 μL of griess reagent was added. The mixture was allowed to react at room temperature for 10 minutes, and absorbance was measured at 540 nm using a microplate reader. The positive control group was treated with 2 µM of 2-amino-4-methylpyridine (2-AM). The relative levels of NO production following the treatments described in the above Example, based on NO production induced by the stimulant (LPS), are shown in Table 1 and FIG. 2 below."}, "[4]": {"tested_on": "hyaluronic acid production", "assay": "Hyaluronic acid (HA) production in HaCaT cells (ELISA)", "assay_type": "cell-based, human", "method": "The HaCaT human keratinocyte cell line was obtained from Cell Line Service GmbH (Germany). The cells were cultured in DMEM containing 1% penicillin-streptomycin and 10% fetal bovine serum (FBS) at 37 °C in a 5% CO2 incubator, and subculture was performed every 2 to 3 days.\nHaCaT cells were seeded at 1.0×10^5 cells/well in a 24-well plate and incubated for 24 hours at 37 °C in a 5% CO2 incubator. After incubation, the culture medium was replaced with serum-free DMEM, and the peptide prepared in the above Example was applied at concentrations of 50-200 μM, followed by incubation for 24 hours.\nThe supernatant from each experimental group was collected, and the amount of hyaluronic acid (HA) released into the medium was measured. The positive control group was treated with N-acetylglucosamine at a concentration of 10 mM. Measurement of hyaluronic acid production was conducted using a Hyaluronic Acid ELISA Kit (Cusabio Biotechnology Co., Ltd.) following the manufacturer's protocol."}, "[5]": {"settings": "50 μM, 24 hours, untreated group = 100"}, "[6]": {"settings": "100 μM, 24 hours, untreated group = 100"}},
  "note": "Where a SMILES comes first, the peptide text is derived from it.",
  "data": [
    {"smiles": "O=C1O[C@H]([C@@H](O)CO)C(O)=C1O", "note": "[Asc. A, ascorbic acid, reference compound]", "values": [
      {"measurement": "activity at 10 µg/mL", "setting": "[1]; Homo sapiens, 24 h, 10 μg/mL, positive control, untreated group = 100", "value": "176 ± 3.91", "unit": "%"}
    ]},
    {"smiles": "Cc1ccnc(N)c1", "note": "[Example 2-AM, 2-amino-4-methylpyridine, reference compound]", "values": [
      {"measurement": "viability at 10 µM", "setting": "[2]", "value": "94.1 ± 1.76", "unit": "%"}
    ]},
    {"smiles": "N[C@@H](Cc1ccc(O)cc1)C(=O)NCC(=O)N[C@@H](CO)C(=O)N[C@@H](CC(=O)O)C(=O)O", "note": "[Example, Tyr-Gly-Ser-Asp] (H-YGSD-OH)", "values": [
      {"measurement": "NO Production (%)", "setting": "[3]; 50 μM", "value": "101.55 ± 2.59", "unit": "%"},
      {"measurement": "NO Production (%)", "setting": "[3]; 100 μM", "value": "91.42 ± 4.58", "unit": "%"},
      {"measurement": "NO Production (%)", "setting": "[3]; 200 μM", "value": "86.51 ± 2.39", "unit": "%"},
      {"measurement": "NO production, result in words", "setting": "[3]; 50-200 μM, LPS", "value": "inhibit NO production in a concentration-dependent manner"},
      {"measurement": "Procollagen production (%)", "setting": "[1]; 1 μM, 24 hours, untreated group = 100", "value": "103.47 ± 6.38", "unit": "%"},
      {"measurement": "Procollagen production (%)", "setting": "[1]; 10 μM, 24 hours, untreated group = 100", "value": "110.79 ± 5.44", "unit": "%"},
      {"measurement": "Procollagen production (%)", "setting": "[1]; [5]", "value": "121.67 ± 3.57", "unit": "%"},
      {"measurement": "Procollagen production (%)", "setting": "[1]; [6]", "value": "132.38 ± 1.24", "unit": "%"},
      {"measurement": "procollagen production, result in words", "setting": "[1]; 1-100 μM, 24 hours", "value": "increase in procollagen production"},
      {"measurement": "Hyaluronic acid production (%)", "setting": "[4]; [5]", "value": "105.1 ± 5.45", "unit": "%"},
      {"measurement": "Hyaluronic acid production (%)", "setting": "[4]; [6]", "value": "123.64 ± 0.81", "unit": "%"},
      {"measurement": "Hyaluronic acid production (%)", "setting": "[4]; 200 μM, 24 hours, untreated group = 100", "value": "132.68 ± 22.43", "unit": "%"},
      {"measurement": "hyaluronic acid production, result in words", "setting": "[4]; 50-200 μM, 24 hours", "value": "increase in hyaluronic acid production"}
    ]},
    {"smiles": "CC(=O)N[C@H]1C(O)O[C@H](CO)[C@@H](O)[C@@H]1O", "note": "(stereo partly shown) [NAG, N-acetylglucosamine, reference compound]", "values": [
      {"measurement": "activity at 10000 µM", "setting": "[4]; Homo sapiens, 24 h, 10 mM, positive control, untreated group = 100", "value": "121 ± 10.4", "unit": "%"}
    ]}
  ]
}
